The text below walks through data of patent publication EP2692724B1, “CHIRAL 3-HYDROXYPYRID-4-ONE DERIVATIVE, AND SYNTHESIS AND USE THEREOF” (Zhejiang University, priority 2011, dated 2012).

The test system of series [1] is mice. Put plainly: Acute toxicity test in mice (maximum oral dosage). Type of series: in vivo. To be noted: suspension of maximum solubility in 0.5% CMC-Na, dose with no fatality. Here is the method:
Prepare suspension of maximum solubility of each compound with 0.5% CMC-Na. Maximum oral dosage to mice is 0.4 mL/10g. Blank group took the same volume 0.5% CMC-Na solution orally (blank group and test group has 4 mice each, 2 female and 2 male). […] Monitor reaction of animal right after drug administration, including appearance, activities, mental states, appetites, urea/feces and its color, fur, nose, eye, mouth, if there are any abnormal secretions and death situation, give timely autopsy to dead animals. If any obvious pathology of organs is found, perform histopathological inspection. Every inspection should be performed every 30∼60 min in the 1st day, then check once a day, record animal toxicity and death distribution. Table 2. Maximum dosage of a few 3-hydroxypyridin-4-one derivatives to mice.

For series [2] the following is noted: reduced by glycosylation of the hydroxyl group at 3' position; cited from earlier work.
The test system of series [3] is ^59Fe-Ferritin. Put plainly: Biological effect of iron chelators over 59Fe-Ferritin/Rat (iron excretion ability, oral). The following applies: for Iron Excretion (%): rat model, taken orally (intragastric) 1 h after tail vein injection of 59Fe-Ferritin, test ends after 24 h, n=5; for iron excretion ability compared with CP20: in vivo rat test, administered in equimolar amounts. Type of series: in vivo. As to the method:
According to methods described by Pippard's research group [Blood 58: 685-692], use ^59Fe to label ferritin in rat liver. Isolate ^59Fe-labelled ferritin by the method described by Bjorklid and Helgeland. In the preparation process, the rats were injected intraperitoneally with iron dextran, and intravenous administration of red blood cells, in order to keep the plasma transferrin saturated. This method ensures that most of ^59Fe (III) is absorbed by the liver, so ^59Fe-ferritin with high specific radioactivity can be obtained.
Performance of one shot intraperitoneal injection of 15mg iron dextran to 350∼400 g rats. After one week, jugular vein cannula is performed and then a 24 h's rest. Then the second day, each rat is given packed red cells (2 mL/100g). After 24 h, each rat is injected via the jugular vein cannula with 200 µCi ^59FeCl solution (Amersham Life Science). ^59FeCl3 (1mCi) is diluted 0.5 mL citrate (50mM, pH 2.5). Each experiment employs 5 rats, total radiation is 1mCi. 24 h after isotopically labeled injection, the livers were removed from rats.
Homogenization of liver is processed in 4 vol. (w/v) 0.25M acetate buffer. The homogenate was heated to 75°C with stirring for 10min. After cooling to 4°C, remove solid protein by centrifugation at 2500 g for 15 min. Treat the supernatant that contains tissue iron protein with half saturated (NH4)2SO4, while cooling in ice water for 30 min. The precipitate obtained by centrifugation at 3500 g at 4°C for 15 min, is dissolved in 0.25M pH=4.8 acetate buffer. Undissolved precipitate is removed through a Pd-10 column (Sephadex®, G-25M, Pharmacia Biotech). The resulting solution is centrifuged at 100,000 g at 4°C for 2 h. The final precipitate is dissolved in 0.05M pH=7.4 phosphate buffer, and stored at 4°C. The purity of ^59Fe-ferritin and normal Ferritin (Sigma Chemical Co.) are compared by electrophoresis. Iron concentration of ferritin is tested by colorimetry [Biochem Mol. Biol Int 35(3): […]].
Starved rat was injected ^59Fe-Ferritin via tail vein, in order to label rat liver cells with ^59Fe. After 1 h, each rat is given an iron chelator via intragastric injection. Blank group is administered with water by lavage. Each rat is placed in a metabolic cage, collect urine and feces. All rats are given free access to food after oral administration 1h later, and are free to drink water during the whole experiment. Test ends after 24 h of the tail vein injection of ^59Fe-Ferritin. All rats are killed by the cervical dislocation, then the liver and gastrointestinal system (including its content and feces) are collected for ^59Fe quantification. Calculation for iron excretion ability of iron chelators with following formula: (1) Iron Excretion(%)=^59Fe Activity(intestinal track & feces)/(^59Fe Activity(intestinal tracks & feces)+ ^59Fe Activity(liver))×100% Table 1 Iron excretion ability of taking chiral 3-hydroxypyridine-4-one orally on rat model (n=5).

Structures can show the parent of a compound that is named as a salt.

Consider `Cc1c(O)c(=O)ccn1C` [CP20, reference compound], for which, in series [1], the “Maximum dosage: Dosage(g/kg)” value is listed as 1.50 g/kg and the “Maximum dosage: Mole dosage(mmol/kg)” value is recorded as 10.7 mmol/kg. For the same compound, in series [2], the half-life is recorded as 2∼3 h. Also, the “Iron Excretion (%)” value in series [3] was 11.4%.
For `Cc1c(O)c(=O)ccn1[C@@H](CO)Cc1ccccc1` [CN128, (R)-3-Hydroxy-1-(1-hydroxy-3-benzylpropyl-2-)2-methyl pyridine-4(1H)-one], in series [3], the “iron excretion ability compared with CP20” value was “several times better than CP20” and the “Iron Excretion (%)” value stood at 24.8%.
With `Cc1c(O)c(=O)ccn1[C@@H](CO)C(C)C` [CN318, (R)-3-Hydroxy-1-(1-hydroxy-3-methylbutyl-2-)-2-methyl pyridine-4(1H)-one hydrochloride], the “Iron Excretion (%)” value in series [3] was determined as 8.0%.
As to “3-Hydroxy-1-((2S)-1-hydroxy-3-methyl pentyl-2-)-2-methyl pyridine-4(1H)-one hydrochloride [CN336]”, the “Iron Excretion (%)” value in series [3] was determined as 10.8%.
For “3-Hydroxy-1-((2S)-1-hydroxy-3-methyl pentyl-2-)-2-ethyl pyridine-4(1H)-one hydrochloride [CN436]”, the “Iron Excretion (%)” value in series [3] was 5.8%.
As for `CCc1c(O)c(=O)ccn1[C@H](C)CO` [CN408, (R)-3-Hydroxy-1-(1-hydroxy-3-propyl-2-)-2-ethyl pyridine-4(1H)-one hydrochloride], the “Iron Excretion (%)” value in series [3] stood at 10.6%.
As for `Cc1c(O)c(=O)ccn1[C@H](CO)C(C)C` [CN116, (S)-3-Hydroxy-1-(1-hydroxy-3-methylbutyl-2-)-2-methyl pyridine-4(1H)-one], in series [3], the “iron excretion ability compared with CP20” value is recorded as “several times better than CP20” and the “Iron Excretion (%)” value was 18.7%.
As for “(S)-3-hydroxy-1-(1-hydroxy propyl-2-)-2-methyl pyridine-4(1H)-one hydrochloride [CN306]”, the “Iron Excretion (%)” value in series [3] was found to be 11.9%.
Consider `CCc1c(O)c(=O)ccn1[C@@H](CO)C(C)C` [CN418, (R)-3-Hydroxy-1-(1-hydroxy-3-methylbutyl-2-)-2-ethyl pyridine-4(1H)-one hydrochloride], for which the “Iron Excretion (%)” value in series [3] worked out at 10.6%.
With `Cc1c(O)c(=O)ccn1[C@H](CO)Cc1ccccc1` [CN326, (S)-3-Hydroxy-1-(1-hydroxy-3-phenylpropyl-2-)-2-methyl pyridine-4(1H)-one hydrochloride], the “Iron Excretion (%)” value in series [3] amounted to 12.8%.
Same read-out and setting: in the case of “(R)-3-Hydroxy-1-(1-hydroxy-3-propyl-2-)-2-methyl pyridine-4(1H)-one hydrochloride [CN308]” it was 6.5%; in that of `CCc1c(O)c(=O)ccn1[C@H](CO)C(C)C` [CN416, (S)-3-Hydroxy-1-(1-hydroxy-3-methylbutyl-2-)-2-ethyl pyridine-4(1H)-one hydrochloride], 7.9%.
As for `CCc1c(O)c(=O)ccn1[C@@H](C)CO` [CN206, (S)-3-Hydroxy-1-(1-hydroxypropyl-2-)-2-ethylpyridine-4(1H)-one], in series [1], the “Maximum dosage: Dosage(g/kg)” value was found to be 3.75 g/kg and the “Maximum dosage: Mole dosage(mmol/kg)” value is 19.0 mmol/kg. Further, in series [3], the “iron excretion ability compared with CP20” value was “several times better than CP20” and the “Iron Excretion (%)” value was found to be 16%.
Consider `CCc1c(O)c(=O)ccn1[C@H](CO)Cc1ccccc1` [CN426, (S)-3-Hydroxy-1-(1-hydroxy-3-phenylpropyl-2-)-2-ethyl pyridine-4(1H)-one hydrochloride], for which, in series [3], the “Iron Excretion (%)” value was determined as 13.1%.
For `CCc1c(O)c(=O)ccn1[C@@H](CO)Cc1ccccc1` [CN228, (R)-3-Hydroxy-1-(1-hydroxy-3-phenylpropyl-2-)-2-ethyl pyridine-4(1H)-one], in series [3], the “iron excretion ability compared with CP20” value is on record as “several times better than CP20” and the “Iron Excretion (%)” value is 22.3%.
